Data as given in PubChem BioAssay (NCI).
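Grown in 96-well plates, cells were treated for 48 hours with each compound at five concentrations. Insufficient inhibition: endpoint recorded as highest concentration tested. TGI: concentration producing complete growth inhibition.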

Legend:
Test in all cases: DTP human tumour cell line panel, 48 h
CCRF-CEM leukemia = system: CCRF-CEM leukemia
EKVX NSCLC = system: EKVX NSCLC
HCT-15 colon = system: HCT-15 colon
HL-60(TB) leukemia = system: HL-60(TB) leukemia
K-562 leukemia = system: K-562 leukemia
MALME-3M melanoma = system: MALME-3M melanoma
MDA-MB-435 = system: MDA-MB-435
MDA-N = system: MDA-N
MOLT-4 leukemia = system: MOLT-4 leukemia
NCI-H460 lung = system: NCI-H460 lung
OVCAR-4 ovarian = system: OVCAR-4 ovarian
PC-3 prostate = system: PC-3 prostate
SF-268 CNS = system: SF-268 CNS
U251 CNS = system: U251 CNS
UACC-62 melanoma = system: UACC-62 melanoma
OVCAR-8 ovarian = system: OVCAR-8 ovarian
SF-295 CNS = system: SF-295 CNS
UACC-257 melanoma = system: UACC-257 melanoma

Structure (SMILES)	TGI (CCRF-CEM leukemia) [µM]	TGI (EKVX NSCLC) [µM]	TGI (HCT-15 colon) [µM]	TGI (HL-60(TB) leukemia) [µM]	TGI (K-562 leukemia) [µM]	TGI (MALME-3M melanoma) [µM]	TGI (MDA-MB-435) [µM]	TGI (MDA-N) [µM]	TGI (MOLT-4 leukemia) [µM]	TGI (NCI-H460 lung) [µM]	TGI (OVCAR-4 ovarian) [µM]	TGI (PC-3 prostate) [µM]	TGI (SF-268 CNS) [µM]	TGI (U251 CNS) [µM]	TGI (UACC-62 melanoma) [µM]	TGI (OVCAR-8 ovarian) [µM]	TGI (SF-295 CNS) [µM]	TGI (UACC-257 melanoma) [µM]
N/C(CCSCCSCC/C(N)=N\O)=N\O	> 100	> 100	> 100	> 100	> 100	> 100	> 100	> 100	> 100	> 100	> 100	> 100	> 100	> 100	> 100	–	–	–
COc1cc(Nc2cc(Cl)cc(Cl)c2)nc(N)n1	43.3	69	36.5	–	> 100	40.4	75.8	62.3	51	34	54	59.6	41.3	41.2	33.4	39.6	38.3	38.8
COC(=O)c1sc(=S)sc1SCc1cccc(CSc2sc(=S)sc2C(=O)OC)c1	> 100	> 100	> 100	–	> 100	> 100	> 100	> 100	> 100	> 100	> 100	> 100	> 100	> 100	> 100	> 100	> 100	> 100
S=c1[nH]nc(Cn2c3ccc(Br)cc3c3nc4ccccc4nc32)o1	> 100	> 100	> 100	–	> 100	> 100	> 31.6	> 100	60.5	> 100	–	> 93.2	> 100	> 92.4	> 82.6	> 100	> 100	> 100
Cc1cn([C@H]2C[C@@H](N3C(=O)c4ccccc4C3=O)[C@@H](CO[Si](C)(C)C(C)(C)C)O2)c(=O)[nH]c1=O	> 100	> 100	> 100	–	> 100	> 100	> 100	> 100	> 100	> 100	> 100	> 100	> 100	> 100	74.9	> 100	> 100	> 100
COc1ccc(OC)c(/C=C2/C(=O)N=C(NC(C)=O)N2C)c1	> 100	> 100	> 100	> 100	–	–	> 100	> 100	> 100	> 100	> 100	> 100	> 100	> 100	> 100	> 100	> 100	> 100
O=C1/C(=C/c2ccc(Br)s2)NC(=S)N1CN1CCCCC1	–	> 100	> 100	50	59.8	> 100	> 100	> 100	66.8	> 100	> 100	88.3	> 100	> 100	> 100	> 100	91.2	> 100
CCOC(=O)c1nc2ccc(C(F)(F)F)cc2nc1Oc1ccc(OC)cc1	> 100	> 100	> 100	–	> 100	> 100	> 100	> 100	> 100	> 100	> 100	> 100	> 100	> 100	> 100	> 100	> 100	> 100
O=[N+]([O-])c1ccc2c3c1[C@@H]1O[C@@H]1c1cccc(c1-3)[C@@H]1O[C@H]21	8.17	20.4	6.05	7.58	> 100	12.7	5.22	10.5	> 100	–	9.48	> 28.5	10.6	11.8	31.6	4.46	40.8	> 25.1
NC1=C(c2nc(-c3ccccc3)cs2)C(c2ccco2)c2c(c3ccccc3oc2=O)O1 (stereo not given)	> 100	> 100	> 100	> 100	> 100	> 100	> 100	> 100	–	> 100	> 100	> 100	> 100	> 100	> 100	> 100	> 100	> 100
O=C(Nc1ccc(Cl)cc1Cl)C1C(=O)OC2(CCCCC2)OC1=O	33.2	32.3	29.4	29.9	43.1	–	56	61.2	26.9	27.4	> 100	17.4	50.5	54.1	24.4	39.6	19.4	30.1
CN(Cc1cccc2ccsc12)/N=C\c1ccc(Cl)cc1	> 100	> 100	> 100	–	> 100	> 100	> 100	> 100	> 100	> 100	> 100	> 100	> 100	> 100	> 100	> 100	> 100	95.4
N#CCC(=O)N/N=C\C(O)C(O)C(O)C(O)CO (stereo not given)	> 100	–	> 100	> 100	> 100	> 100	> 100	> 100	> 100	> 100	–	> 100	> 100	–	> 100	> 100	> 100	> 100
CCOc1ccc(NC(=O)C(=O)C(/C(=N/N)C(=O)OC)c2nc3ccc([N+](=O)[O-])cc3[nH]c2=O)cc1 (stereo not given)	> 100	> 100	> 100	–	> 100	> 100	> 100	> 100	> 100	> 100	> 100	> 100	> 100	> 100	> 100	> 100	> 100	> 100
O=C(O)CCC(NC(=O)c1ccc(Nc2nc3ccc(C(F)(F)F)cc3nc2C(=O)O)cc1)C(=O)O (stereo not given)	> 100	> 100	> 100	> 100	> 100	–	> 100	> 100	> 100	–	–	> 100	> 100	> 100	> 100	> 100	> 100	> 100
N#CC1=C(S)N(C2OC(CO)C(O)C(O)C2O)C(c2ccccc2)=CC1c1ccco1 (stereo not given)	> 100	–	> 100	> 100	> 100	> 100	> 100	> 100	> 100	> 100	> 100	> 100	> 100	53.5	42.1	> 100	> 100	> 100
Cc1[nH]c(=O)c2oc3cc4ccccc4cc3c2c1C(=O)O	–	> 10	> 10	> 10	–	> 10	> 10	> 10	–	> 10	> 10	> 10	> 10	> 10	> 10	> 10	> 10	> 10
O=c1c2sc3ccccc3sc=2c(=O)c2c(Cl)c(Cl)c(Cl)c(Cl)c12	> 100	> 100	> 100	–	> 100	> 100	> 100	> 100	> 100	> 100	> 100	> 100	> 100	> 100	> 100	> 100	> 100	> 100
Cc1cccc(C)c1NC(=O)C(=O)CC(=O)c1sc(Nc2c(C)cccc2C)nc1C	> 100	> 100	> 100	> 100	> 100	–	> 100	> 100	> 100	> 100	> 100	> 100	> 100	> 100	> 100	> 100	> 100	> 100
CC(C)(C)n1c(=O)n2c(-c3ccccc3)c(-c3ccccc3)n2c1=O	–	> 100	> 100	> 100	> 100	> 100	> 100	> 100	–	> 100	> 100	> 100	> 100	> 100	> 100	> 100	> 100	> 100
Cc1cc2nnn(C3CCCCO3)c2cc1C (stereo not given)	> 100	> 100	> 100	–	> 100	> 100	> 100	> 100	> 100	> 100	> 100	> 100	–	> 100	> 100	> 100	> 100	> 100
COC(=O)c1ccc(CCC2=CC(=O)C=CC2=O)cc1	2	38.7	23	4.79	8.9	–	28	27.6	4.92	35.9	38.4	27.7	31.7	24.8	29.3	50.7	30.6	22.5
COC(=O)C1=C(OC)C(=P2(c3ccccc3)CC(c3ccccc3)=C2c2ccccc2)C(C(=O)OC)=C1C(=O)OC (stereo not given)	4.74	> 100	> 62.7	3.22	–	> 78.2	> 100	> 100	13.8	> 81.7	> 100	> 100	> 100	> 100	> 100	> 100	> 100	> 100
CCCN1C(=O)CN(S(=O)(=O)c2ccc(Cl)cc2)C1=O	> 100	> 100	> 100	> 100	> 100	> 100	> 100	> 100	–	> 100	> 100	> 100	> 100	> 100	> 100	–	> 100	> 100
C=C1CC[C@@H]2[C@](C)(COC(=O)CCC(=O)OC)CCC[C@@]2(C)[C@@H]1CCC1=CC(=O)OC1	58.8	> 100	> 100	51.2	> 100	> 100	> 100	> 100	47.7	> 100	> 100	> 100	–	> 100	–	> 100	> 100	> 100
Nc1nccc(NCC2(CO)CC(CCc3ccccc3)C2)n1 (stereo not given)	55.5	46.9	36.1	34.4	45.5	29.1	28.7	31.4	41.7	28.4	47.2	31.9	–	28.7	28.5	69.4	26.4	37.9
O[C@@H]1[C@H](OC2c3ccccc3-c3ccccc32)[C@H](OCc2ccccc2)[C@@H]2OC[C@H]1O2	> 100	> 100	> 100	> 100	> 100	> 100	> 100	> 100	> 100	–	> 100	> 100	> 100	> 100	> 100	> 100	> 100	> 100
